Assay results taken from patent US20250002467A1, “DESIGN, SYNTHESIS AND MECHANISMS OF ANTICANCER ACTIVITY OF NEW ACETYLATED 5-AMINOSALICYLATE-THIAZOLINONE HYBRID DERIVATIVES” (University of Sharjah, priority 2023, published 2025).

Tests used:
MCF7 = experiment: SRB cytotoxicity assay, MCF7; format: cell-based
Excerpt: (§1) Eight different cancer cell lines were acquired from the Radiobiology and Experimental Radio Oncology lab, University Medical Center, Hamburg University, Hamburg, Germany. MCF7, MDA-MB-231 (breast cancer), and A549 (lung cancer) cells were maintained in RPMI medium while HCT116 (colon cancer), HepG2 (liver cancer), U87, U373 (glioblastoma), and HeLa (cervical cancer) were maintained in DMEM supplemented with 10% FBS and 1% penicillin/streptomycin (Sigma Aldrich, Missouri, USA). Normal human fibroblast (F180) cells were maintained in DMEM supplemented with 15% FBS. Normal human mammary epithelial cell line (HME1) were maintained in DMEM/F-12 medium supplemented with 10% FBS. All incubations were done at 37° C. in a humidified atmosphere of 5% CO2. All cell lines were authenticated by short tandem repeat (STR) profiling. The CDK4 knockout cells (provided by Dr. Samrein Ahmed, University of Sharjah, United Arab Emirates) were generated by CRISPR-CAS9 technology and were maintained in DMEM supplemented with 10% FBS.
(§2) The cytotoxic effects of HH32 and HH33 compounds were evaluated at various concentrations ranging from 0.0001 to 100 μM by sulphrhodamine-B (SRB) assay as described previously. The anti-proliferative activity was expressed as growth inhibitory concentration (IC50) values, which were calculated by the sigmoidal dose-response curve fitting method using Graph pad prism 6 software (GraphPad Software, San Diego, CA, USA).

HCT-116 = experiment: SRB cytotoxicity assay, HCT-116; format: cell-based
Excerpt: as §1, §2

HeLa = experiment: SRB cytotoxicity assay, HeLa; format: cell-based
Excerpt: as §1, §2

A549 = experiment: SRB cytotoxicity assay, A549; format: cell-based
Excerpt: as §1, §2

HepG2 = experiment: SRB cytotoxicity assay, HepG2; format: cell-based
Excerpt: as §1, §2

MDA-MB-231 = experiment: SRB cytotoxicity assay, MDA-MB-231; format: cell-based
Excerpt: as §1, §2

U87 = experiment: SRB cytotoxicity assay, U87; format: cell-based
Excerpt: as §1, §2

U373 = experiment: SRB cytotoxicity assay, U373; format: cell-based
Excerpt: as §1, §2

F-180 = experiment: SRB cytotoxicity assay, normal fibroblast F-180; format: cell-based, human; details: F-180 normal fibroblast, mean ± SEM
Excerpt: as §1, §2

HME1 = experiment: SRB cytotoxicity assay, normal mammary epithelial HME1; format: cell-based, human; details: mean ± SEM
Excerpt: as §1, with “The CDK4 knockout cells (provided by Dr. Samrein Ahmed, University of Sharjah, United Arab Emirates) were generated by CRISPR-CAS9 technology and were maintained in DMEM supplemented with 10% FBS.” left out
as §2

Q: Which results are given for `COc1cccc2c1C(=O)c1c(O)c3c(c(O)c1C2=O)C[C@@](O)(C(=O)CO)C[C@@H]3O[C@H]1C[C@H](N)[C@H](O)[C@H](C)O1` [DOX, Doxorubicin, reference compound]?
A: Selectivity index (MCF7; F180 versus MCF7): 4.8; Selectivity index (MCF7; HME1 versus MCF7): 18.7; IC50 (MCF7; Homo sapiens, MCF7, SRB, mean ± SEM): 60 nM; Selectivity index (HCT-116; F180 versus HCT116): 2.6; Selectivity index (HCT-116; HME1 versus HCT116): 10.2; IC50 (HCT-116; Homo sapiens, HCT-116, SRB, mean ± SEM): 110 nM; Selectivity index (HeLa; F180 versus HeLa): 0.6; Selectivity index (HeLa; HME1 versus HeLa): 2.4; IC50 (HeLa; Homo sapiens, HeLa, SRB, mean ± SEM): 460 ± 460 nM; Selectivity index (A549; F180 versus A549): 0.47; Selectivity index (A549; HME1 versus A549): 1.81; IC50 (A549; Homo sapiens, A549, SRB, mean ± SEM): 620 ± 590 nM; Selectivity index (HepG2; F180 versus HepG2): 0.78; Selectivity index (HepG2; HME1 versus HepG2): 3.02; IC50 (HepG2; Homo sapiens, HepG2, SRB, mean ± SEM): 370 ± 120 nM; Selectivity index (MDA-MB-231; F180 versus MDA-MB-231): 0.64; Selectivity index (MDA-MB-231; HME1 versus MDA-MB-231): 2.5; IC50 (MDA-MB-231; Homo sapiens, MDA-MB-231, SRB, mean ± SEM): 450 ± 110 nM; Selectivity index (U87; F180 versus U87): 2.9; Selectivity index (U87; HME1 versus U87): 11.2; IC50 (U87; Homo sapiens, U-87 MG, U87, SRB, mean ± SEM): 100 ± 90 nM; Selectivity index (U373; F180 versus U373): 0.33; Selectivity index (U373; HME1 versus U373): 1.3; IC50 (U373; Homo sapiens, U373 MG, U373, SRB, mean ± SEM): 880 ± 90 nM; IC50 (F-180): 290 ± 370 nM; IC50 (F-180; listed as doxorubicin): < 1200 nM; IC50 (HME1; HME1 normal epithelial): 1120 ± 190 nM; IC50 (HME1; Homo sapiens, HME1, HME1 normal epithelial): < 1200 nM
